Measured values published in patent US6599706B1, “Recombinant PR-3 and assays employing the same” (Chiron Corporation, priority 1994, dated 2003).
Read-outs that look alike come from different tables or passages of the source. Values belong to the molecule of their own block, whether it stands above or below them. No end group written: not given here.

What was measured:
[1] = biological target: T1, purified native PR-3 from human neutrophils (Homo sapiens, UniProt P24158); assay: 35S-labelled 26 kD TNFα autoradiographic convertase assay with purified native PR-3; format: biochemical; conditions: PR-3 0.3 μg/ml preincubated 30 minutes
T1 construct: from tissue; host or cells: human blood neutrophils
T1 sequence (P24158 28-248): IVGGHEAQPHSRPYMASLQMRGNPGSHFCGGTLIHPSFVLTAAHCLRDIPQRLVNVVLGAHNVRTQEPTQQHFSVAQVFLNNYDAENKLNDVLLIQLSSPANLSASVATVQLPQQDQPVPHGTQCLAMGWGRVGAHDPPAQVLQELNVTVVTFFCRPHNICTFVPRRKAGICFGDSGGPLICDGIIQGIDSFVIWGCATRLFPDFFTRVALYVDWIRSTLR
Protocol: (§1) ^35S-cysteine-labelled 26 kD TNFα was used to assay for convertase inhibitors as follows. 25 μl of in vitro translated material was combined with 250 μl of solution containing convertase activity partially purified from uninduced HL60 cells, plus compounds to be assayed for inhibitory activity. The convertase was produced by harvesting 2×10^9 HL60 cells, disrupting the cells, and isolating S-1 (supernatant fluid from a 100,000 ×g centrifugation) and P-30 (pellet from a 30,000×g centrifugation) fractions totalling 18 and 6 ml, respectively. 250 μl of the P-30 fraction was used, although the S-1 fraction may also be used. The assay was carried out at 30° C. for 1 hour, essentially as described above. Next, the reaction mixture was immunoprecipitated with rabbit anti-human TNFα polyclonal antisera (produced from TNFα made in E. coli) and protein A Sepharose, pelleted and washed. The bound protein was eluted and electrophoresed using SDS-PAGE. The gel was fixed in 40% methanol, 10% acetic acid, soaked in Enlightening (Dupont), dried, and exposed to X-ray film which was subsequently developed.
The above assay was also used with purified native PR-3 from human neutrophils to test a variety of proteinase inhibitors for their ability to inhibit TNFα convertase activity, as shown in FIG. 5. Purified PR-3 (0.3 μg/ml) was preincubated for 30 minutes with the following inhibitors prior to addition of ^35S-labelled 26 kD-TNFα, and then assayed as described above: DCI (45 μM), α-2-macroglobulin (1 mg/ml), PMSF (20 μM), leupeptin (2 μg/ml), EDTA (10 mM), or pepstatin (2 μg/ml).

[2] = biological target: T2, PR-3 (Homo sapiens, UniProt P24158); conditions: cited from earlier work
T2 sequence (P24158 28-248): T1 sequence (P24158 28-248)

[3] = biological target: T3, TNFα convertase/PR-3 (purified native PR-3) (Homo sapiens, UniProt P24158); assay: Colorimetric Boc-Ala-ONp assay for convertase inhibition; format: biochemical
T3 construct: from tissue; host or cells: human blood neutrophils
T3 sequence (P24158 28-248): T1 sequence (P24158 28-248)
Protocol: TNFα convertase inhibition can also be measured by a colorimetric assay. In this type of assay, the actual activity of TNFα convertase is measured directly using a colorimetric TNFα convertase substrate. […] One such substrate is Boc-Ala-ONp (Bachem Bioscience, Inc., Philadelphia, Pa.). Other potentially useful substrates can be predicted from the structure of TNFα convertase and other serine proteases. Although the example herein uses purified native PR-3 as the TNFα convertase, it is contemplated that recombinant PR-3 or other TNFα convertases can be used in this assay as well.
Peptide diphenyl phosphonate inhibitors were synthesized and stored as lyophilized solids as described in Oleksyszyn and Powers, Biochem 30:485-493 (1991). Inhibitor solutions (10 mg/ml) were prepared in 100% dimethyl sulfoxide (DMSO) and diluted into aqueous buffers upon initiation of the experiments. 3,4, dichloro-isocoumarin was purchased from CalBiochem. Purified PR-3 (10 μl, 0.1 mg/ml) was mixed with varying concentrations of protease inhibitor ([…]) in 20 mM sodium phosphate buffer, pH 7.0, containing 0.1 M sodium chloride. Aliquots (40 μl) were removed at selected times and diluted 1/10 into a colorimetric assay for convertase, containing 0.5-1 mM Boc-Ala-ONp (prepared fresh from a 50 mM stock in 100% methanol) in 0.02 M sodium phosphate buffer, pH 7.0, 0.1 M sodium chloride. The increase in absorbance was monitored at 347 nm on a Hewlett Packard 8450A spectrophotometer, and using an extinction coefficient of 5.5×10^3 M^−1cm^−1 to calculate units of enzyme activity.
The peptide diphenyl phosphonates were tested in the colorimetric assay described in Example 3, for inhibition of TNFα convertase/PR-3 activity.

[4] = biological target: T4, recombinant PR-3 (rPR-3) (Homo sapiens, UniProt P24158); assay: Residual recombinant PR-3 activity with Boc-Ala-ONp substrate; format: biochemical
T4 construct: made in house; host or cells: Sf9 insect cells (baculovirus, pAcC13preproPR-3)
T4 sequence (P24158 28-248 limits assumed): T1 sequence (P24158 28-248)
Protocol: Cytoplasmic anti-neutrophil cytoplasmic antibodies (c-ANCA) are human polyclonal antibodies derived from patients with Wegener's granulomatosis. […] Protein-A-purified human c-ANCA (supplied by Dr. Erik Hack, The Netherlands) was mixed with purified recombinant PR-3 (SEQ ID NO: 23) prepared as described above at various molar ratios of antibody to enzyme, and after incubation for 1 hour at 37° C., residual enzyme activity was measured using the Boc-Ala-ONp substrate as described in Example 4.
The two peptide diphosphonate inhibitors, Boc-Ala-Pro-Val-(OPh)2 and Boc-Val-Pro-Val-(OPh)2, were mixed at various concentrations with 125 ng of rPR-3 (prepared as described above) and incubated for 1 hour at 25° C. The residual enzyme activity was measured using the Boc-Ala-ONp substrate and compared to the same amount of enzyme incubated in the absence of inhibitor. Under these conditions, the Boc-Ala-Pro-Val-(OPh)2 inhibited PR-3 with an IC50 of about 10 μM and the Boc-Val-Pro-Val-(OPh)2 inhibited PR-3 with an IC50 of about 0.4 μM. […] Thus, recombinant PR-3 may be employed in detection of useful inhibitors of native PR-3.

[5] = biological target: T2, PR-3; assay: Inhibition of PR-3, summary statement of the assays shown below; format: biochemical
Description: As shown below, PR-3 is inhibited by peptide diphenyl phosphonate inhibitors, elastinal, and dichloro-isocoumarin (DCI). The peptide diphenyl phosphonate inhibitors include Boc-Val-Pro-Val-p(OPh)2 and Boc-Ala-Pro-Val-p(OPh)2 (BOC-butoxycarbonyl). […] “Boc” means N-tert-butoxycarbonyl and “p(OPh)2” represents the diphenyl phosphonate moiety, wherein the formula—COOH group is replaced with P(=0)-(O-phenyl)2. See Oleksyszyn et al., Biochem 30:485 (1991). It will be appreciated that other peptide diphenyl phosphonate molecules may inhibit PR-3. Potential inhibitors may be constructed using the procedures shown in Oleksyszyn et al., supra, using small aliphatic peptides, for an example. Once the potential inhibitors are made, they may be tested in the assays shown below.

[6] = biological target: T5, TNFα convertase from HL60 cells (Homo sapiens, UniProt P24158); assay: 35S-labelled 26 kD TNFα in vitro transcription/translation autoradiographic convertase assay with HL60 convertase (P-30 fraction); format: biochemical; conditions: 5 mg/ml; 30° C., 1 hour; SDS-PAGE autoradiography
T5 construct: solution containing convertase activity partially purified from uninduced HL60 cells; endogenous in cells
T5 sequence (P24158 28-248): T1 sequence (P24158 28-248)
Description: A preferred assay procedure consists of in vitro transcription/translation to produce the 26 kD molecule, followed by treatment with convertase in the presence or absence of compounds being tested for convertase inhibitory activity. The procedure entails in vitro transcription/translation of the TNFα cDNA present in the pGEM vector. Thus, the sequence was removed from pB11 by Pst I digestion and was inserted into the Pst I site of pGEM-3 (obtainable from Promega Biotec, Madison Wis.). The resulting plasmid, termed pGEM-TNFα14, was amplified in E. coli using established techniques, and plasmid DNA was prepared according to the procedure of Birnboim and Doly, described above. Plasmid DNA was transcribed in vitro by linearizing it with Hind III, and the linearized plasmid templates were used to prepare capped transcripts with T7 RNA polymerase and an in vitro transcription kit supplied by Promega Biotec (Madison, Wis.).
The mRNA produced above was translated in vitro in the presence of ^35S-cysteine to produce ^35S-cysteine-labelled 26 kD TNFα. A rabbit reticulocyte lysate translation kit was used, also supplied by Promega Biotec, and the conditions recommended by the manufacturer were followed.
as §1, with “The bound protein was eluted and electrophoresed using SDS-PAGE. The gel was fixed in 40% methanol, 10% acetic acid, soaked in Enlightening (Dupont), dried, and exposed to X-ray film which was subsequently developed.” left out

Molecule: O=S(=O)(F)Cc1ccccc1 [PMSF, phenylmethyl-sulfonyl fluoride]
inhibition of TNFα convertase activity of purified PR-3 ([1]; 20 μM): significant inhibitory activity
inhibition of PR-3 [2]: inhibited

Molecule: CC(C)C(NC(=O)[C@@H]1CCCN1C(=O)[C@@H](NC(=O)OC(C)(C)C)C(C)C)P(=O)(Oc1ccccc1)Oc1ccccc1 (stereo partly drawn) [VPV, Boc-Val-Pro-Val-p(OPh)2]
inhibition of TNFα convertase/PR-3 activity ([3]; 35 μM): demonstrated inhibitory activity
IC50 [4]: ~400 nM
inhibition of PR-3 [5]: inhibited

inhibition of the convertase (conversion of 26 kD TNFα) [6]: inhibit the convertase
inhibition of PR-3 [5]: inhibited
Molecule: CC(C)C[C@H](NC(=O)N[C@H](C(=O)N[C@@H](CCC(N)=O)C(=O)N[C@@H](C)C=O)[C@@H]1CCNC(=N)N1)C(=O)O [elastinal]

Molecule: AQAVRSSS
inhibition of convertase activity ([3]; 50 μM, Boc-Ala-ONp colorimetric assay with PR-3): did not inhibit convertase activity significantly

Molecule: α1-antitrypsin: protein reported to inhibit PR-3
inhibition of PR-3 [2]: inhibited

inhibition of TNFα convertase activity of purified PR-3 ([1]; 1 mg/ml): significant inhibitory activity
Molecule: α-2-macroglobulin: proteinase inhibitor tested against purified PR-3
inhibition of PR-3 [2]: inhibited
